Results from patent publication US20050124618A1, “Methods of modulating angiogenesis and cancer cell proliferation” (priority 2003, published 2005).
“Also recorded” adds a separate entry of the source.

Tests used:
[1] = tested on: extensor digitorum longus (EDL) and tibialis anterior (TA) muscles; assay: Vessel density of EDL and TA muscles after 7 days of electrical stimulation; assay type: in vivo, rat
Experimental: (§1) Experimental protocols and tissue preparation: After a 24-h recovery period, the implanted stimulator was activated by momentary closure of the magnetic reed switch using a small hand-held magnet. […] Contractions of the extensor digitorum longus (EDL) and tibialis anterior (TA) muscles were automatically initiated at 9 AM each day and sustained for 8 h/day over a consecutive 7-day period. At the end of the stimulation period, the animals were euthanized by an overdose of pentobarbital sodium (100 mg/kg ip), and the EDL and TA muscles were harvested for analysis as previously described (Greene A S et al., Hypertension 15: 779-783, 1990; and Parmentier J H et al., Hypertension 37: 623-629, 2001).
Tissue harvest and morphological analysis of vessel density: The stimulated and contralateral muscles were removed, weighed, and rinsed in physiological salt solution. A 300-mg sample was taken from the rostral portion of the TA muscle and frozen in liquid nitrogen for Western blot (100 mg) and HPLC (200 mg) analysis for measurement of VEGF protein expression and 20-HETE formation, respectively. The remaining TA and EDL muscles were lightly fixed in a 0.25% formalin solution overnight. The muscles were sectioned via a manual microtome to a thickness of about 100 μm by securing the tendons and slicing parallel to the longitudinal orientation of the muscle fibers. From every animal, two slices of each EDL muscle and three slices of each TA muscle were made. The slices were than immersed for 2 h in a solution of 25 μg/ml rhodamine-labeled Griffonia simplicifolia I (GS-I) lectin (Sigma; St. Louis, Mo. (Greene A S et al., Hypertension 15: 779-783, 1990)). Immediately after this 2-h exposure to GS-I lectin, the muscles were rinsed in physiological solution. The rinsing procedure was repeated after 15 and 30 min, and the muscles were rinsed in physiological saline solution for 12 h (overnight, at 4° C.). On the next day, the slices were mounted on microscope slides with a water-soluble mounting medium consisting of toluene and acrylic resin (SP ACCU-MOUNT 280, Baxter Scientific).
The labeled sections were visualized using a video fluorescent microscope system (Olympus ULWD CD Plan, ×20 objective, 1.6 cm working distance and 0.4 numerical aperture) with epi-illumination, as previously described (Parmentier J H et al., Hypertension 37: 623-629, 2001). In the present study, 10-15 and 20-25 representative fields were selected for study from each EDL and TA muscle slice, respectively. Each field was converted to a digitized image (DT2801 Data Translation; Marlboro, Mass.) and stored as an 8-bit/pixel image file with a resolution of 512×512 pixels. Morphometric analysis of the scanned histochemical sections was done as previously described (Parmentier J H et al., Hypertension 37: 623-629, 2001).
Data analysis and statistics: For each muscle, the vessel counts of all the selected fields (10-15 scans×2 slices for each EDL muscle; 20-25 scans×3 slices for each TA muscle) were averaged to a single vessel density. Vessel density was expressed in terms of the mean number of vessel-grid intersections per microscope field (0.224 mm^2). For each experimental group, the measured vessel density and 20-HETE formation of the stimulated muscle was compared with its unstimulated counterpart as well as with age-matched controls. All values are presented as means±SE. The significance of differences in values measured in the same animal was evaluated using a two-factor ANOVA (drug×stimulation) with repeated measures on one factor (stimulation). Significant differences were further investigated using a post hoc test (Tukey's).

[2] = tested on: VEGF; assay: Western blot of VEGF protein expression in TA muscle; assay type: in vivo, rat
Experimental: Western blot analysis to detect the presence of VEGF protein: The 100-mg TA muscle specimens were homogenized, and the protein was suspended in potassium buffer (10 mM). Five micrograms of protein (as determined by a protein assay kit, Bio-Rad; Hercules, Calif.) from the TA and a tumor cell line known to express VEGF at high levels (C6, American Type Culture Collection, 107-CCL) were separated on a 12% denaturing polyacrylamide gel. The gels were transferred to a nitrocellulose membrane, which was blocked overnight in 5% nonfat dry milk diluted in Tris-buffered saline (50 mM Tris and 750 mM NaCl, pH 8) with 0.08% Tween 20 (Bio-Rad). The blots were then incubated with a […] antibody to a peptide derived from the human VEGF sequence (1:1,000 dilution, clone G143-850, Pharmingen) for 2 h at room temperature. Washed blots were then incubated with goat anti-mouse secondary antibody at a dilution of 1:1,000 for 1 h at room temperature and then subjected to a SuperSignal West Dura chemiluminescence substrate (Pierce; Rockford, Ill.) detection system. Membranes were exposed to X-ray film (Fuji Medical; Stamford, Conn.) for 15 to 30 s and developed using a Kodak M35 X-Omat processor. For the quantitative VEGF analysis, film was always exposed for a period of time that ensured that all signals were within the linear range of the detection of the film. The VEGF band intensity was quantified using a morphometry imaging system (Metamorph, Universal Imaging; West Chester, Pa.), and values are expressed as a percentage of the C6 tumor cell standard.

[3] = tested on: 20-HETE; assay: 20-HETE formation in electrically stimulated skeletal (TA) muscle of rats; assay type: in vivo, rat; details: 7 days of electrical stimulation; chronic treatment
Experimental: as §1
The rats were divided in four groups. […] This dose was chosen based on our previous results (Kehl F et al., Am J Physiol Heart Circ Physiol 282: H1556-H1565, 2002).
To determine the contribution of VEGF to the angiogenesis induced by electrical stimulation, six rats in group 3 were treated with 3 mg/kg ip injections of a monoclonal VEGF-neutralizing antibody (Texas Biotechnology; Houston, Tex.) during the period of electrical stimulation. The protocol for administration of VEGF-neutralizing antibody was modified from Zheng W et al. (Circ Res 85: 192-198, 1999), and this dose was based on our previous results (Amaral S L et al., Microcirculation 8: 57-67, 2001). After the stimulation period was started, the rats received intraperitoneal injections on days 3, 5, and 7 (0.6 mg/100 g).
Muscle preparations for measurement of 20-HETE: The 100-200 mg of frozen TA muscle were homogenized in a solution containing 1 ml of acidified water and 50 μl of an internal standard, WIT-002, which was synthesized and kindly provided by Taisho Pharmaceutical. Ethyl acetate (3 ml, Fisher Scientific; Pittsburgh, Pa.) was added to the mixture and gently vortexed. The homogenized tissues were then centrifuged at 3,000 revolutions/min for 2 min. With the use of a glass Pasteur pipet, the top layer was removed and transferred to a sterile glass vial, and the samples were dried under nitrogen and stored at −80° C.
Labeling of samples and fluorescent detection of 20-HETE: Detection of 20-HETE was performed as previously described (Ma Y H et al., Am J Physiol Regul Integr Comp Physiol 267: R579-R589, 1994). Samples, which were extracted and dried under argon, were resuspended in 20 μl of acetonitrile containing 36.4 mM 2-(2,3-napthalimino)ethyl trifluoromethanesulfonate, and N,N-diisopropylethylamine (10 μl) was added as a catalyst. The sample was reacted for 30 min at room temperature, dried under argon, resuspended in 1 ml of 40% acetonitrile-water, and applied to a Sep-Pak Vac column. The column was washed with 6 ml of 50% acetonitrile-water solution to remove unreacted dye, eluted with 500 μl of ethyl acetate, dried under argon, and resuspended in 100 μl of the HPLC mobile phase [methanol-water-acetic acid, 82:18:0.1 (vol/vol)]. A 25-μl aliquot of the derivatized sample was separated on a 4.6×250-mm Symmetry C18 reverse-phase HPLC column (Waters) isocratically at a rate of 1.3 ml/min using methanol-water-acetic acid (82:18:0.1 (vol/vol)) as the mobile phase. Fluorescence intensity monitored using an in-line fluorescence detector (model number L-7480, Hitachi; Naperville, Ill.) at medium gain sensitivity. The amount of 20-HETE in the sample was determined by comparing the area of the 20-HETE peak with that of the internal standard (WIT-002).

[4] = tested on: 20-HETE; details: cited from earlier work
[5] = chronic treatment, 7 days electrical stimulation

Nn1nnc2ccccc21 [ABT, 1-aminobenzotriazole]
effect on the increase in vessel density (angiogenesis) induced by electrical stimulation ([1]; 7 days, HET0016 2 mg kg−1 day−1, ABT 50 mg kg−1 day−1): blocked; also recorded: attenuated
vessel density, EDL, unstimulated side ([1]; chronic treatment, 7 days): 111±7.4 number of vessel intersections
vessel density, TA, unstimulated side ([1]; chronic treatment, 7 days): 99.7±4.72 number of vessel intersections
vessel density, EDL, stimulated side [1, 5]: 121±4.35 number of vessel intersections
vessel density, TA, stimulated side [1, 5]: 119.5±4.51 number of vessel intersections
effect on increases in VEGF protein expression induced by electrical stimulation ([2]; 7 days stimulation): did not block
effect on baseline VEGF expression ([2]; 7 days treatment): Neither HET0016 nor ABT had any effect
effect on the increase of 20-HETE formation induced by electrical stimulation [3]: blocked
ability to reduce 20-HETE levels in vivo [4]: reduce 20-HETE levels in vivo
